*1 amine or outer side, *2 acyl side, *3 side chain or, on linkers, in order; H or OH if unused. Where a SMILES comes first, the peptide text is derived from it. Side-chain parts run from the residue outwards. [ ]: non-standard residue; d: D form. The star is where a group is joined. γGlu = O=C(O)[C@H](CCC(=O)[*:2])N[*:1]; Palmitoyl = CCCCCCCCCCCCCCCC(=O)*; αMeK = C[C@](N)(CCCCN)C(=O)O; Nle = CCCC[C@H](N)C(=O)O; AEEA = NCCOCCOCC(=O)O; Aib = CC(C)(N)C(=O)O
Tests used:
[1] = Stability testing of peptides in rat plasma or blood; format: in vitro ADME; conditions: 37° C.
How it was run: (§1)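 Peptide at 5 µM final was incubated at 37 °C in heparinized rat or human plasma or blood, sampled up to 4 h, and extracted with acetonitrile/1% TFA. HPLC peak areas relative to t0 give % remaining peptide.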

[2] = Pharmacokinetic (PK) determination after i.v. or s.c. administration to rats; format: in vivo, Sprague Dawley rats; conditions: Sprague Dawley, Rat PK
How it was run: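 Non-compartmental analysis of plasma LC/MS data (protein precipitation, BLQ taken as zero) gave T½, C0 (i.v.), Cmax/Tmax (s.c.) and F% from dose-corrected AUCs. Dosing: 3 mg/kg s.c. or 1 mg/kg i.v. in PBS to Sprague Dawley rats, purity- and salt-corrected.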

RXFP1 = molecular target: T1, RXFP1 (Homo sapiens, UniProt Q9HBX9); assay: OVCAR5 cAMP assay (HTRF), RXFP1 agonist activity; format: cell-based
T1 construct: OVCAR5 cells expressing endogenous RXFP1; endogenous in cells; host or cells: OVCAR5 cells
T1 sequence (Q9HBX9 1-757): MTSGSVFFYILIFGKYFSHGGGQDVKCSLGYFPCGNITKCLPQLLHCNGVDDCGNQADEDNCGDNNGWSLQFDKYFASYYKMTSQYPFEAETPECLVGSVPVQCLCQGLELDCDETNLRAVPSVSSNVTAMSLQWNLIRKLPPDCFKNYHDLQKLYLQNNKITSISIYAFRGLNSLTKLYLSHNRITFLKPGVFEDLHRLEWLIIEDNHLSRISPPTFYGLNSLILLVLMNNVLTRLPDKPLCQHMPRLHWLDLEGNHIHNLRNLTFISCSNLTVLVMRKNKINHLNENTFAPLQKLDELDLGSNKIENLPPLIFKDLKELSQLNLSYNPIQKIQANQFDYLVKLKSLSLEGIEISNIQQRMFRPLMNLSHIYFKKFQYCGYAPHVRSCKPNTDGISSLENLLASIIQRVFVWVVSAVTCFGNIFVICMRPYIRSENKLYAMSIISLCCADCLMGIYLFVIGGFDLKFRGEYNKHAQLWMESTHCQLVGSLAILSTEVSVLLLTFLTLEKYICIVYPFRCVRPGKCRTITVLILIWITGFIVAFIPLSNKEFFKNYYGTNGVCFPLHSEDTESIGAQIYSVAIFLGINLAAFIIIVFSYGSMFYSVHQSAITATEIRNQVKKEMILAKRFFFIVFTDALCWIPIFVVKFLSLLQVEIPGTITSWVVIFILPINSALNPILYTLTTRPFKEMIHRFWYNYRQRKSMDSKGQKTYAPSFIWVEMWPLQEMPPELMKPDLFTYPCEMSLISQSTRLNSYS
How it was run: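 cAMP accumulation readout: after 1 mM IBMX for 40 min, endogenous-RXFP1 OVCAR5 cells got rising peptide concentrations without FCS, 30 min, 37° C, then lysis with HTRF cAMP reagents. Nonlinear regression gave EC50; Emax expressed relative to H2-relaxin maximum, same occasion.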

[3] = Stability testing of peptides in human plasma or blood; format: in vitro ADME; conditions: 37° C.
How it was run: as §1

Rat plasma stability % remaining T = 0 ([1]; rat plasma or blood, T = 0 (reference), 5 μM): 100%
remaining at 1 h, 5 µM ([1]; whole blood, rat blood, 1 h, read-out: Rat stability in blood % remaining 1 h): 86%
remaining at 4 h, 5 µM ([1]; whole blood, rat blood, 4 h, read-out: Rat stability in blood % remaining 4 h): 90%
C0 ([2]; iv, 1 mg/kg i.v., extrapolated plasma concentration at t=0, read-out: C0): 3600 nM
half-life ([2]; plasma, iv, 1 mg/kg i.v., read-out: T½ (converted)): 5.7 h
Cmax ([2]; plasma, sc, 3 mg/kg s.c.): 2100 nM
Tmax ([2]; plasma, sc, 3 mg/kg s.c.): 8 h
bioavailability ([2]; plasma, subcutaneous, 3 mg/kg s.c. vs 1 mg/kg i.v., dose-corrected AUC ratio): 76%
EC50 (RXFP1; OVCAR5 cells, cAMP HTRF, read-out: EC50 (nM), OVCAR 5 cells (cAMP)): 0.07 nM
Emax (RXFP1; OVCAR-5, maximal cAMP relative to H2-relaxin maximum (100%), read-out: EMax, OVCAR 5 cells (cAMP)): 92%
Human Plasma stability % remaining T = 0 ([3]; human plasma or blood, T = 0 (reference), 5 μM): 100%
remaining at 1 h, 5 µM ([3]; whole blood, human blood, 1 h, read-out: Human stability in blood % remaining 1 h): 34%
remaining at 4 h, 5 µM ([3]; whole blood, human blood, 4 h, read-out: Human stability in blood % remaining 4 h): 78%
Compound: CCCCCCCCCCCCCCCC(=O)N[C@@H](CCC(=O)N[C@@H](CCC(=O)N[C@@H](CCC(=O)N[C@@H](CCC(=O)NCCCC[C@H](NC(=O)COCCOCCNC(=O)COCCOCCNC(=O)COCCOCCNC(=O)COCCOCCNC(=O)[C@H](CCCCNC(C)=O)NC(=O)[C@H](C)NC(=O)[C@H](CCCNC(=N)N)NC(=O)[C@](C)(CCCCN)NC(=O)[C@H](CO)NC(=O)[C@H](Cc1ccccc1)NC(=O)[C@@H](NC(=O)[C@H](CO)NC(=O)[C@H](CCCC)NC(=O)CNC(=O)[C@H](CCC(=O)O)NC(=O)C(C)(C)NC(=O)C(C)(C)NC(=O)[C@@H](NC(=O)[C@H](CCCCNC(C)=O)NC(=O)[C@H](C)NC(=O)[C@H](CCCNC(=N)N)NC(=O)[C@@H](NC(=O)[C@H](CCCCN)NC(=O)[C@H](CCC(=O)O)NC(=O)[C@H](CCCNC(=N)N)NC(=O)CNC(=O)[C@H](CCC(=O)O)NC(=O)[C@H](CC(C)C)NC(C)=O)C(C)C)[C@@H](C)CC)[C@@H](C)O)C(N)=O)C(=O)O)C(=O)O)C(=O)O)C(=O)O [compound 150] (Ac-LEGREKVRAK(Ac)I[Aib][Aib]EG[Nle]STFS[αMeK]RAK(Ac)[AEEA][AEEA][AEEA][AEEA]K([γGlu-γGlu-γGlu-γGlu-Palmitoyl])-NH2)
